Measured values: ChEMBL document CHEMBL4680175, “Sulfonamide-based ring-fused analogues for CAN508 as novel carbonic anhydrase inhibitors endowed with antitumor activity: Design, synthesis, and in vitro biological evaluation” (Eur J Med Chem, 2020)
pIC50, pKi: −log10 of the molar value.

Key:
Carbonic anhydrase 9 = Carbonic anhydrase 9 (Homo sapiens, UniProt Q16790); assay: Inhibition of recombinant human carbonic anhydrase 9 preincubated with enzyme for 15 mins by phenol red dye based stopped flow CO2 hydrase assay
Carbonic anhydrase 1 = Carbonic anhydrase 1 (Homo sapiens, UniProt P00915); assay: Inhibition of recombinant human carbonic anhydrase 1 preincubated with enzyme for 15 mins by phenol red dye based stopped flow CO2 hydrase assay
[1] = target: Cyclin-dependent kinase 2/cyclin E1 (Homo sapiens, UniProt P24941); assay: Inhibition of CDK2/cyclin E (unknown origin) expressed in baculovirus infected Sf21 insect cells using histone H1 as substrate in presence of [gamma33P]ATP
CDK9/cyclin T1 = CDK9/cyclin T1 (Homo sapiens, UniProt P50750); assay: Inhibition of human full-length N-terminal GST/His6-tagged CDK9 (1 to 372 residues)/His6-tagged Cyclin-T1 (1 to 726 residues) expressed in sf9 cells using (YSPTSPS)2KK peptide as substrate in presence of [gamma33P]ATP
Carbonic anhydrase 2 = Carbonic anhydrase 2 (Homo sapiens, UniProt P00918); assay: Inhibition of recombinant human carbonic anhydrase 2 preincubated with enzyme for 15 mins by phenol red dye based stopped flow CO2 hydrase assay
Carbonic anhydrase 12 = Carbonic anhydrase 12 (Homo sapiens, UniProt O43570); assay: Inhibition of recombinant human carbonic anhydrase 12 preincubated with enzyme for 15 mins by phenol red dye based stopped flow CO2 hydrase assay
Sequence of Carbonic anhydrase 12 (O43570 whole entry): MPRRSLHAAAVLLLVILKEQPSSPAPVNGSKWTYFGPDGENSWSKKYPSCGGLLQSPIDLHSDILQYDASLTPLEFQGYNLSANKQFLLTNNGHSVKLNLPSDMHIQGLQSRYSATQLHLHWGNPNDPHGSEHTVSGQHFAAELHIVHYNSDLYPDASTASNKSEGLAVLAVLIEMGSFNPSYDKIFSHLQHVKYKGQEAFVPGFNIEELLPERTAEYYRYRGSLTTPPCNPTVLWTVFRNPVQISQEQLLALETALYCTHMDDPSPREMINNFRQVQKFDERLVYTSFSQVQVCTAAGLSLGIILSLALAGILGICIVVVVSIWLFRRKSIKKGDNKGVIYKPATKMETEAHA

Sequence of Carbonic anhydrase 1 (P00915 whole entry): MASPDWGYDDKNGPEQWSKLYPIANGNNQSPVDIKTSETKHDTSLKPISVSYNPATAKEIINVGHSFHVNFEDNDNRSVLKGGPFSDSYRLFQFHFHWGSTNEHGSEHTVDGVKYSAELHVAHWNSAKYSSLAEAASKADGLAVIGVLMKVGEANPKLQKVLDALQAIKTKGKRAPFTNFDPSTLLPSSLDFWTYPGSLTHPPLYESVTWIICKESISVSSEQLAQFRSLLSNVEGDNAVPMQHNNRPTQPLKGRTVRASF
Sequence of CDK9/cyclin T1 (O60563 whole entry, the tested form may be a part): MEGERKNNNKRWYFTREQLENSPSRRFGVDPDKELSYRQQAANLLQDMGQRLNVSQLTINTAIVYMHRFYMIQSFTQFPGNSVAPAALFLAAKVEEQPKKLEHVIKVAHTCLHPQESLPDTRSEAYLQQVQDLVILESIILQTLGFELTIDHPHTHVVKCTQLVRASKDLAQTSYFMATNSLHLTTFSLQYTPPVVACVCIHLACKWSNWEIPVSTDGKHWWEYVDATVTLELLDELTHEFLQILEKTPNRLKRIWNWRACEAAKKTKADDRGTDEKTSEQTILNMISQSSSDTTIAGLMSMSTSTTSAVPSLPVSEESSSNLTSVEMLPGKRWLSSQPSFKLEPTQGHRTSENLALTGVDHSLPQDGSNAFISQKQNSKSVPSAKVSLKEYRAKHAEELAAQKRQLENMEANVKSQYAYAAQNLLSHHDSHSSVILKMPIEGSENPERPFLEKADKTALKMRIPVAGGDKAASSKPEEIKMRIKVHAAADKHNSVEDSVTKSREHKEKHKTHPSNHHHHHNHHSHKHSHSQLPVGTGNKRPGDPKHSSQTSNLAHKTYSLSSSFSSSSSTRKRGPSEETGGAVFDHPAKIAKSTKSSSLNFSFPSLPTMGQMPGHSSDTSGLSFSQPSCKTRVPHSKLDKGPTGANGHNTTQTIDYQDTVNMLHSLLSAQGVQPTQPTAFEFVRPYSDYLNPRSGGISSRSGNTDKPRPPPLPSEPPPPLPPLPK
Sequence of CDK9/cyclin T1 (P50750 whole entry, the tested form may be a part): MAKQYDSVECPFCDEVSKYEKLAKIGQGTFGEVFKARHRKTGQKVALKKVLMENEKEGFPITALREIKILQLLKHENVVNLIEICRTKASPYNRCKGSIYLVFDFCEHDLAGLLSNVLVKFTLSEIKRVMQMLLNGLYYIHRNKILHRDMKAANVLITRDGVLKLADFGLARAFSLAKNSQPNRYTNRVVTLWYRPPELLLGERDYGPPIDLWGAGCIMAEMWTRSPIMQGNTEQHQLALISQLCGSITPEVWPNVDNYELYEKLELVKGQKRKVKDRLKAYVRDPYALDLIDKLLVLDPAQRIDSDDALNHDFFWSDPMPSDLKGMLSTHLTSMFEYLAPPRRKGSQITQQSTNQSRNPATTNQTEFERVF

Row | Structure (SMILES) | pKi (Carbonic anhydrase 9) | pKi (Carbonic anhydrase 1) | pIC50 [1] | pIC50 (CDK9/cyclin T1) | pKi (Carbonic anhydrase 2) | pKi (Carbonic anhydrase 12)
1 | Nc1nn2c(-c3ccc(Cl)cc3)ccnc2c1/N=N/c1ccc(S(N)(=O)=O)cc1 | 7.25 | 6.26 | 5.19 | < 4.90 | 7.63 | 7.35
2 | Nc1nn2c(-c3ccc(F)cc3)ccnc2c1/N=N/c1ccc(S(N)(=O)=O)cc1 | 8.22 | 6.17 | < 4.90 | < 4.90 | 7.84 | 7.50
3 | Nc1n[nH]c(N)c1/N=N/c1ccc(S(N)(=O)=O)cc1 | 7.66 | 6.57 | 4.38 | < 4.90 | 7.42 | 8.00
4 | Nc1nn2c(-c3ccc(Br)cc3)ccnc2c1/N=N/c1ccc(S(N)(=O)=O)cc1 | 7.19 | 6.11 | 5.10 | < 4.90 | 7.41 | 7.27
5 | Nc1nn2c(-c3ccccc3)ccnc2c1/N=N/c1ccc(S(N)(=O)=O)cc1 | 7.50 | 6.34 | < 4.90 | < 4.90 | 7.56 | 7.60
6 | COc1ccc(-c2ccnc3c(/N=N/c4ccc(S(N)(=O)=O)cc4)c(N)nn23)cc1 | 7.53 | 6.35 | < 4.90 | < 4.90 | 8.26 | 7.05
7 | Nc1nn2c(-c3cccs3)ccnc2c1/N=N/c1ccc(S(N)(=O)=O)cc1 | 7.40 | 5.94 | < 4.90 | < 4.90 | 8.15 | 7.23
8 | Cc1ccc(-c2ccnc3c(/N=N/c4ccc(S(N)(=O)=O)cc4)c(N)nn23)cc1 | 7.34 | 5.88 | < 4.90 | < 4.90 | 8.21 | 7.22
9 | Nc1nn2c(-c3ccc([N+](=O)[O-])cc3)ccnc2c1/N=N/c1ccc(S(N)(=O)=O)cc1 | 7.17 | 5.67 | < 4.90 | < 4.90 | 7.45 | 7.84
